# Where a SMILES comes first, the peptide text is derived from it. Bridges are numbered along the chain shown (N, C = ends).
# Tests used:
# [1] = target: T1, Neuronal acetylcholine receptor; alpha3/beta4 (Homo sapiens, UniProt P30926+P32297); assay: Antagonist activity at nAChR alpha3beta4 in human SH-SY5Y cells assessed as increase in intracellular calcium level preincubated for 10 mins followed by nicotine addition measured after 30 mins by FLIPR assay; type: cell-based
# [2] = target: T2, Neuronal acetylcholine receptor subunit alpha-7 (Homo sapiens, UniProt P36544); assay: Antagonist activity at nAChR alpha7 in human SH-SY5Y cells assessed as increase in intracellular calcium level preincubated for 10 mins followed by choline addition measured after 30 mins by FLIPR assay; type: cell-based
# T2 sequence (P36544 whole entry): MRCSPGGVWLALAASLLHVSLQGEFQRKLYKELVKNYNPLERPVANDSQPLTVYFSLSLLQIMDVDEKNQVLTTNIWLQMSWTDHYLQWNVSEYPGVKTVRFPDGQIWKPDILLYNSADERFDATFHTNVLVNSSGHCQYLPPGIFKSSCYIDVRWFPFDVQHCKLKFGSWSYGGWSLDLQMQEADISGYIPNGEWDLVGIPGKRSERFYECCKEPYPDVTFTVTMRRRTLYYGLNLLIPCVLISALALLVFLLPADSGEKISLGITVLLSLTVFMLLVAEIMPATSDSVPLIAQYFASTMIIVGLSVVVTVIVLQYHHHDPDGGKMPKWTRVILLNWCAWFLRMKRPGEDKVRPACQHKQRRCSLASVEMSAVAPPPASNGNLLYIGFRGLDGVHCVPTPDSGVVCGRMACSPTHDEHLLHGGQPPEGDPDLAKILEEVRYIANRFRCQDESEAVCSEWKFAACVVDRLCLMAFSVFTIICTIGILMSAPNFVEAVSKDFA
# [3] = target: T2, Neuronal acetylcholine receptor subunit alpha-7; assay: Antagonist activity at alpha7 nAChRs in human SH-SY5Y cells assessed as increase in intracellular calcium level by FLIPR assay; type: cell-based
# [4] = target: T3, Neuronal acetylcholine receptor; alpha4/beta2 (Homo sapiens, UniProt P17787+P43681); assay: Antagonist activity at alpha4beta2 nAChRs (unknown origin) assessed as inhibition constant; type: protein-complex assay
# T3 sequence (P17787 whole entry): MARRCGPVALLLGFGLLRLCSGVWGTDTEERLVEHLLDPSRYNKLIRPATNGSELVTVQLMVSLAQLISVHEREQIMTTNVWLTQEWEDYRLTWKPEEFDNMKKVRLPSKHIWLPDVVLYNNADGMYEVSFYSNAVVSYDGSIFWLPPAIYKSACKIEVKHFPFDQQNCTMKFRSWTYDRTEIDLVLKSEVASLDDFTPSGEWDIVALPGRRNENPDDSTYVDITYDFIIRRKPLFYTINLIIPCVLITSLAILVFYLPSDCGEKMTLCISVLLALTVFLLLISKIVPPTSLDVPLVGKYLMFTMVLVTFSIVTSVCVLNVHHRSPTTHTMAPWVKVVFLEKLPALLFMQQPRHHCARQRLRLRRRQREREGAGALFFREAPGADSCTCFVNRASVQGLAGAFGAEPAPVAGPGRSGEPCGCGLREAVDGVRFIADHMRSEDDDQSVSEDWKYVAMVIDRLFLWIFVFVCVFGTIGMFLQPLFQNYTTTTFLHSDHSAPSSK
# T3 sequence (P43681 whole entry): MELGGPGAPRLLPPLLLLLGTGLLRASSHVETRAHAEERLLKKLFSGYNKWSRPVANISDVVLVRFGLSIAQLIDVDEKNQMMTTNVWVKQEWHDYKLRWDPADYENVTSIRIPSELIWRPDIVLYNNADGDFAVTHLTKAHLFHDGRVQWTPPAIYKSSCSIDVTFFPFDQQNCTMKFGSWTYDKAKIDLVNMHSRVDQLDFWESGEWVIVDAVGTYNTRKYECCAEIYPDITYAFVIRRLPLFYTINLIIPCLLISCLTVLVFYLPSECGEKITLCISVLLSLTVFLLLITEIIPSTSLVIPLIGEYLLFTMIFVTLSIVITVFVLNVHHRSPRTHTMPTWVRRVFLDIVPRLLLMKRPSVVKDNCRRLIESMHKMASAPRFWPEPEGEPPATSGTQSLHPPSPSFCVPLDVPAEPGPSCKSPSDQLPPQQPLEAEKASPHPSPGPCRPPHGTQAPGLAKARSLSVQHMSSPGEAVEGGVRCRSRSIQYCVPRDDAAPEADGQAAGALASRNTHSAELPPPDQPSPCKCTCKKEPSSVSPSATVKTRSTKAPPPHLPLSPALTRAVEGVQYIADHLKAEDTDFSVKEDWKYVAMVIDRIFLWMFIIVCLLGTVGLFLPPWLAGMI
# [5] = target: T2, Neuronal acetylcholine receptor subunit alpha-7; assay: Antagonist activity at alpha7 nAChRs (unknown origin) assessed as inhibition constant
# [6] = target: Mu-type opioid receptor (Bos taurus, UniProt P79350); assay: Displacement of [3H]-DAGO from calf cortex MOR receptor assessed as inhibition constant; type: tissue-based
# Mu-type opioid receptor, sequence (P79350 whole entry): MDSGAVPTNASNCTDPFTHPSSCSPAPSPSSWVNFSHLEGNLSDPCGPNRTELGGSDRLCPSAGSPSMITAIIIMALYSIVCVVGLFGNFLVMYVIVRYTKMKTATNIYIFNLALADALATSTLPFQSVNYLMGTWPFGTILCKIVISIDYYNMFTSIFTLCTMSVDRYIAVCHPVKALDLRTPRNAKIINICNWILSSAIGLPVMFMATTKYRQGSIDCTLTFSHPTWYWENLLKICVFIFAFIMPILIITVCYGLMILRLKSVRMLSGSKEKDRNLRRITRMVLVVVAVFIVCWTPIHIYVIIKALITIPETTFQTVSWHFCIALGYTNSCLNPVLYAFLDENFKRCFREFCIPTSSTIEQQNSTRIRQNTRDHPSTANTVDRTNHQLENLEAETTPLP
# [7] = Displacement of [3H]-DPDPE from calf caudate nucleus DOR receptor assessed as inhibition constant; type: tissue-based, Bos taurus
# [8] = Displacement of [3H]-GR-65,630 from 5-HT3 receptor in mouse NG-108 cells assessed as inhibition constant; type: cell-based; settings: ng-108 cell
# [9] = target: T4, Muscarinic acetylcholine receptor M1 (Bos taurus, UniProt Q8WMX0); assay: Displacement of [3H]-pirenzepine from calf cortex Muscarinic M1 receptor assessed as inhibition constant; type: tissue-based
# T4 sequence (Q8WMX0 whole entry): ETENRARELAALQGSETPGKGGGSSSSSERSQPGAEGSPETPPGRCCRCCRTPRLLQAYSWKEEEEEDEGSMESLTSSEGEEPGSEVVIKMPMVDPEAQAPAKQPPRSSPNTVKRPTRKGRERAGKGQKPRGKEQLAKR
# [10] = target: Sigma intracellular receptor 2 (Bos taurus, UniProt Q3MHW7); assay: Displacement of [3H]-DTG from calf hippocampus sigma 2 receptor assessed as inhibition constant; type: tissue-based
# Sigma intracellular receptor 2, sequence (Q3MHW7 whole entry): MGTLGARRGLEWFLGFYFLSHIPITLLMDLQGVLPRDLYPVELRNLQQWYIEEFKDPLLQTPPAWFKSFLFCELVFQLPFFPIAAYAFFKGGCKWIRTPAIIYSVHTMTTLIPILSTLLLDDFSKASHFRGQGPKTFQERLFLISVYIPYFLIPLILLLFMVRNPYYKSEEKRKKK
# [11] = Displacement of [3H]-BTX-B from bovine cortex sodium channel assessed as inhibition constant; type: tissue-based, Bos taurus
# [12] = target: T1, Neuronal acetylcholine receptor; alpha3/beta4; assay: Antagonist activity at recombinant alpha3beta4 nAChR in HEK293 cells by voltage-clamp based electrophysiological method; type: cell-based
# [13] = target: T3, Neuronal acetylcholine receptor; alpha4/beta2; assay: Antagonist activity at alpha4beta2 nAChR in HEK293 cells by voltage-clamp based electrophysiological method; type: cell-based
# [14] = target: T1, Neuronal acetylcholine receptor; alpha3/beta4; assay: Antagonist activity at human alpha3beta4 nAChRs expressed in HEK293 cells assessed as inhibition of (+/-)-epibatidine-induced Ca+2 influx incubated for 5 mins by FLIPR analysis; type: cell-based
# [15] = target: T1, Neuronal acetylcholine receptor; alpha3/beta4; assay: Displacement of [3H]imipramine from human alpha3beta4 nAChRs expressed in HEK293 cells assessed as inhibition constant incubated for 2 hrs by scintillation counter analysis; type: cell-based
# [16] = target: T3, Neuronal acetylcholine receptor; alpha4/beta2; assay: Inhibition of nAChR alpha4beta2 receptor (unknown origin); type: protein-complex assay
# [17] = target: T2, Neuronal acetylcholine receptor subunit alpha-7; assay: Inhibition of nAChR alpha7 receptor (unknown origin) assessed as inhibition of calcium flux
# T1 sequence (P30926 whole entry): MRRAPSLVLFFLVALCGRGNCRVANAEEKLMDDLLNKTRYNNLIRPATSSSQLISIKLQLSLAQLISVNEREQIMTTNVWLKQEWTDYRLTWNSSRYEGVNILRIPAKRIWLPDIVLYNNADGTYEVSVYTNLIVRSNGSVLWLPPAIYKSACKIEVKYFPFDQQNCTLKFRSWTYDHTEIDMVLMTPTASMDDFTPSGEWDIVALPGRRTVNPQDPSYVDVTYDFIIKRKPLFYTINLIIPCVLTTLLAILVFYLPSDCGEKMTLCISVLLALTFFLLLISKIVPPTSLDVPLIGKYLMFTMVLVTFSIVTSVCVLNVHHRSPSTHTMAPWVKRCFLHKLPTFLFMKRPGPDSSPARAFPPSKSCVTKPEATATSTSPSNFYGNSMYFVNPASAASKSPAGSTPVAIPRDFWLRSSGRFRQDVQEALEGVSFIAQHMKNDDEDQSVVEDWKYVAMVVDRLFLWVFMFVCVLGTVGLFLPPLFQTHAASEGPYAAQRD
# T1 sequence (P32297 whole entry): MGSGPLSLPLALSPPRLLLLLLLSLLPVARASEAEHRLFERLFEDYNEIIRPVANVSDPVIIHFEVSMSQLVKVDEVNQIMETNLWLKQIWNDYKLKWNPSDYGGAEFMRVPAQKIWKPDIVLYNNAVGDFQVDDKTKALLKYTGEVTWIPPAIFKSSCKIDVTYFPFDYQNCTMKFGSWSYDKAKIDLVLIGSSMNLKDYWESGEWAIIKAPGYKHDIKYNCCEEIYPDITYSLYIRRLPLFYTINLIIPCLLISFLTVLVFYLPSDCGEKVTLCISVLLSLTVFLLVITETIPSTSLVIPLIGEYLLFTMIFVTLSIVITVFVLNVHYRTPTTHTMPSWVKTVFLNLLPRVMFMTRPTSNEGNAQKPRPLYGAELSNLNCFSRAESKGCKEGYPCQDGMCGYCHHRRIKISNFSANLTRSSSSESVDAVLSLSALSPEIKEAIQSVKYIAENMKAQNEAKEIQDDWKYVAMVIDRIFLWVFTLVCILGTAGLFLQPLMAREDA
smiles,measurement,setting,value
"CC[C@H](C)[C@@H]1NC(=O)[C@H](CC(N)=O)NC(=O)[C@@H]2CCCN2C(=O)[C@H](CC(N)=O)NC(=O)[C@H](CC(C)C)NC(=O)[C@H](C(C)C)NC(=O)[C@H](Cc2ccccc2)NC(=O)[C@@H]2CSSC[C@H](NC(=O)CNC(=O)[C@@H](N)CO)C(=O)N[C@@H](CSSC[C@@H](C(=O)O)NC1=O)C(=O)N[C@@H](CO)C(=O)N[C@@H](CC(N)=O)C(=O)N1CCC[C@H]1C(=O)N[C@@H](C)C(=O)N2 (H-SGCCSNPACFVLNPNIC-OH; disulfide 3-9, 4-17)",IC50,[1],0.41 µM
same,IC50,[2],> 100 µM
"CC[C@H](C)[C@@H]1NC(=O)[C@H](CC(N)=O)NC(=O)[C@@H]2CCCN2C(=O)[C@H](CC(N)=O)NC(=O)[C@H](CC(N)=O)NC(=O)[C@H](C(C)C)NC(=O)[C@H](CCSC)NC(=O)[C@@H]2CSSC[C@H](NC(=O)CNC(=O)[C@@H](N)CO)C(=O)N[C@@H](CSSC[C@@H](C(=O)O)NC1=O)C(=O)N[C@@H](CO)C(=O)N[C@@H](CC(N)=O)C(=O)N1CCC[C@H]1C(=O)N[C@@H](C)C(=O)N2 (H-SGCCSNPACMVNNPNIC-OH; disulfide 3-9, 4-17)",IC50,[1],0.44 µM
same,IC50,[2],0.242 µM
"CC[C@H](C)[C@@H]1NC(=O)[C@H](CC(N)=O)NC(=O)[C@@H]2CCCN2C(=O)[C@H](CC(N)=O)NC(=O)[C@H](CC(C)C)NC(=O)[C@H](C(C)C)NC(=O)[C@H](CCCNC(=N)N)NC(=O)[C@@H]2CSSC[C@H](NC(=O)CNC(=O)[C@@H](N)CO)C(=O)N[C@@H](CSSC[C@@H](C(=O)O)NC1=O)C(=O)N[C@@H](CO)C(=O)N[C@@H](CC(N)=O)C(=O)N1CCC[C@H]1C(=O)N[C@@H](C)C(=O)N2 (H-SGCCSNPACRVLNPNIC-OH; disulfide 3-9, 4-17)",IC50,[1],0.63 µM
same,IC50,[2],2.57 µM
"CC[C@H](C)[C@@H]1NC(=O)[C@H](CC(N)=O)NC(=O)[C@@H]2CCCN2C(=O)[C@H](CC(N)=O)NC(=O)[C@H](CC(N)=O)NC(=O)[C@H](C(C)C)NC(=O)[C@H](CCCNC(=N)N)NC(=O)[C@@H]2CSSC[C@H](NC(=O)CNC(=O)[C@@H](N)CO)C(=O)N[C@@H](CSSC[C@@H](C(=O)O)NC1=O)C(=O)N[C@@H](CO)C(=O)N[C@@H](CC(N)=O)C(=O)N1CCC[C@H]1C(=O)N[C@@H](C)C(=O)N2 (H-SGCCSNPACRVNNPNIC-OH; disulfide 3-9, 4-17)",IC50,[3],> 0.01 µM
CNC1(C)[C@H]2CC[C@H](C2)C1(C)C (mixture of isomers),Ki,[4],2.5 µM
same,Ki,[5],6.9 µM
COCC[C@H]1C[C@H]2CN3CCc4c([nH]c5ccc(OC)cc45)[C@](C(=O)OC)(C2)[C@H]13 (racemic),Ki,[6],0.0011 µM
same,Ki,[7],0.0035 µM
same,Ki,[8],0.0038 µM
same,Ki,[9],0.032 µM
same,Ki,[10],0.013 µM
same,Ki,[11],0.0064 µM
same,IC50,[12],0.75 µM
same,IC50,[13],> 20 µM
same,IC50,[14],1.47 µM
same,Ki,[15],0.4 µM
same,IC50,[16],6.3 µM
same,IC50,[17],34.7 µM
